The values that follow come from paper PMC9317966, “Structure-function analysis of the AMPK activator SC4 and identification of a potent pan AMPK activator” (Biochemical Journal, 2022).

The structures appear in SMILES notation. A value given as a limit tells only on which side of the number the result lay.

Holding throughout (assay): Radiolabel SAMS kinase assay, immobilised GST-AMPK
Assay type in all cases: biochemical
Common to all, as to settings: 1 µM compound

Assay [1] concerns the target T1, human GST-AMPK α2β2γ2 (Homo sapiens, UniProt O43741+P54646).
T1 construct: triply transfected with full-length AMPK α1 or α2 (NH2-terminal GST fusion, pDEST27 vector); full-length AMPK α1 or α2 (NH2-terminal GST fusion, pDEST27 vector), β1 or β2 (COOH-terminal FLAG fusion, pcDNA3.1 vector); FLAG (C); made in house; host or cells: HEK293T/17 cells, transient triple transfection
From the text:
(§1) We generated a series of compounds to investigate whether modification of the SC4 2-hydroxybiphenyl LHS fragment affects isoform selectivity, some of which (MSG008-MSG011) are presented in Table 1. We also synthesised compound MSG012 (example I-3-54 [32]), which was reported to activate α2β2γ1 with ∼100-fold greater potency compared with α1β1γ1. MSG012 differs from SC4 by substitution of the 2-hydroxyphenyl LHS fragment with 3-cyclohexen-4-yl-1-carboxylic acid, and 2-methylbenzoic acid RHS fragment with 1-hydroxy-N,N-dimethylcyclohexan-4-yl-1-carboxamide. Our initial screen involved measuring the activity of recombinant human GST-AMPK complexes expressed in HEK293T/17 cells and immobilised on glutathione-Sepharose (Supplementary Figure S1). Enzyme activity was measured by radiolabelling the synthetic SAMS peptide substrate in the absence or presence of 1 µM compound. Consistent with our previous characterisation, SC4 activated α1β1γ1, α2β1γ1 and α2β2γ1 >2.3-fold, and weakly activated α1β2γ1 1.3-fold (Figure 1A). […] The γ isoform had little influence on AMPK activation by MSG011 as most γ2 and γ3 complexes were activated >2.2-fold at 1 µM, with α1β2γ2 being the only exception (1.6-fold activation). […] Accordingly, MSG010, MSG011 and MSG012 can be classified as pan AMPK activators.
(§2) Adherent HEK293T/17 cells at ∼50% confluency were triply transfected with full-length AMPK α1 or α2 (NH2-terminal GST fusion, pDEST27 vector), β1 or β2 (COOH-terminal FLAG fusion, pcDNA3.1 vector), and γ1, γ2 or γ3 (NH2-terminal HA fusion, pMT2 vector) in the presence of FuGENE HD transfection reagent (Promega) as per the manufacturers protocol. Cells were harvested 48 hours post-transfection by first gently washing in ice cold phosphate buffered saline (PBS; Sigma–Aldrich), then scraping in ice cold lysis buffer (50 mM TRIS pH 7.5, 150 mM NaCl, 10% (v/v) glycerol, 50 mM NaF, 5 mM sodium pyrophosphate, 1% (v/v) Triton X-100, cOmplete protease inhibitor cocktail). Lysates were clarified by centrifugation (16 000g, 3 min, 4°C), flash frozen in liquid N2 and stored at −80°C until analysis. For radioactive kinase assays, AMPK was immobilised on glutathione Sepharose 4B resin (GE Healthcare) by incubation with lysates for 1.5 h at 4°C. Following centrifugation (1000g, 3 min, 4°C), the resin was washed twice in purification buffer (50 mM HEPES pH 7.4, 150 mM NaCl, 10% (v/v) glycerol, 0.02% (v/v) Tween-20), once in 50 mM HEPES pH 7.4 with 0.02% (v/v) Tween-20, then resuspended to a 50% slurry with 50 mM HEPES pH 7.4 and 10 µl added to the activity assays. For in solution kinase assays, α1β1γ1 AMPK was eluted from glutathione-Sepharose by incubating with purification buffer supplemented with 40 mM reduced glutathione (Sigma–Aldrich).
(§3) AMPK activity was determined by phosphorylation of the SAMS peptide (Purar Chemicals, sequence: NH2-HMRSAMSGLHLVKRR-COOH) in a 25 µl reaction volume containing 100 µM SAMS peptide, 5 mM MgCl2, 200 µM ATP, [γ-^32P]-ATP (PerkinElmer) and assay buffer (50 mM HEPES pH 7.4, 1 mM DTT and 0.02% (v/v) Tween-20) and purified AMPK. Phosphotransferase activity was conducted at 30°C for 10 min and reactions were quenched by spotting 15 µl onto phosphocellulose ion-exchange chromatography paper (made in-house), followed by repeated washes in 1% H3PO4 (Merck Millipore). Ultima Gold liquid scintillation fluid (5 ml; PerkinElmer) was added to vials containing dried phosphocellulose papers, and the level of ^32P-transfer to the SAMS peptide was determined using a Tri-Carb 2900TR liquid scintillation counter (PerkinElmer).

The target in assay [2] is T2, human GST-AMPK α1β1γ2 (Homo sapiens, UniProt Q13131+Q9Y478).
T2 construct: triply transfected with full-length AMPK α1 or α2 (NH2-terminal GST fusion, pDEST27 vector); full-length AMPK α1 or α2 (NH2-terminal GST fusion, pDEST27 vector), β1 or β2 (COOH-terminal FLAG fusion, pcDNA3.1 vector); FLAG (C); made in house; host or cells: HEK293T/17 cells, transient triple transfection
Source text: as §1, §2, §3

Assay [3] has as its target T3, human GST-AMPK α2β1γ3 (Homo sapiens, UniProt P54646+Q9Y478).
T3 construct: triply transfected with full-length AMPK α1 or α2 (NH2-terminal GST fusion, pDEST27 vector); full-length AMPK α1 or α2 (NH2-terminal GST fusion, pDEST27 vector), β1 or β2 (COOH-terminal FLAG fusion, pcDNA3.1 vector); FLAG (C); made in house; host or cells: HEK293T/17 cells, transient triple transfection
Source text: as §1, §2, §3

For assay [4], the target named is T4, human GST-AMPK α2β1γ2 (Homo sapiens, UniProt P54646+Q9Y478).
T4 construct: triply transfected with full-length AMPK α1 or α2 (NH2-terminal GST fusion, pDEST27 vector); full-length AMPK α1 or α2 (NH2-terminal GST fusion, pDEST27 vector), β1 or β2 (COOH-terminal FLAG fusion, pcDNA3.1 vector); FLAG (C); made in house; host or cells: HEK293T/17 cells, transient triple transfection
Source text: as §1, §2, §3

Assay [5] addresses T5, human GST-AMPK α1β2γ3 (Homo sapiens, UniProt O43741+Q13131).
T5 construct: triply transfected with full-length AMPK α1 or α2 (NH2-terminal GST fusion, pDEST27 vector); full-length AMPK α1 or α2 (NH2-terminal GST fusion, pDEST27 vector), β1 or β2 (COOH-terminal FLAG fusion, pcDNA3.1 vector); FLAG (C); made in house; host or cells: HEK293T/17 cells, transient triple transfection
Source text: as §1, §2, §3

Assay [6] concerns the target T6, human GST-AMPK α2β2γ3 (Homo sapiens, UniProt O43741+P54646).
T6 construct: triply transfected with full-length AMPK α1 or α2 (NH2-terminal GST fusion, pDEST27 vector); full-length AMPK α1 or α2 (NH2-terminal GST fusion, pDEST27 vector), β1 or β2 (COOH-terminal FLAG fusion, pcDNA3.1 vector); FLAG (C); made in house; host or cells: HEK293T/17 cells, transient triple transfection
Source text: as §1, §2, §3

Assay [7] addresses T7, human GST-AMPK α1β2γ2 (Homo sapiens, UniProt O43741+Q13131).
T7 construct: triply transfected with full-length AMPK α1 or α2 (NH2-terminal GST fusion, pDEST27 vector); full-length AMPK α1 or α2 (NH2-terminal GST fusion, pDEST27 vector), β1 or β2 (COOH-terminal FLAG fusion, pcDNA3.1 vector); FLAG (C); made in house; host or cells: HEK293T/17 cells, transient triple transfection
Source text: as §1, §2, §3

Assay [8] addresses T8, human GST-AMPK α1β1γ3 (Homo sapiens, UniProt Q13131+Q9Y478).
T8 construct: triply transfected with full-length AMPK α1 or α2 (NH2-terminal GST fusion, pDEST27 vector); full-length AMPK α1 or α2 (NH2-terminal GST fusion, pDEST27 vector), β1 or β2 (COOH-terminal FLAG fusion, pcDNA3.1 vector); FLAG (C); made in house; host or cells: HEK293T/17 cells, transient triple transfection
Source text: as §1, §2, §3

T1 sequence (P54646 whole entry, the tested form may be a part): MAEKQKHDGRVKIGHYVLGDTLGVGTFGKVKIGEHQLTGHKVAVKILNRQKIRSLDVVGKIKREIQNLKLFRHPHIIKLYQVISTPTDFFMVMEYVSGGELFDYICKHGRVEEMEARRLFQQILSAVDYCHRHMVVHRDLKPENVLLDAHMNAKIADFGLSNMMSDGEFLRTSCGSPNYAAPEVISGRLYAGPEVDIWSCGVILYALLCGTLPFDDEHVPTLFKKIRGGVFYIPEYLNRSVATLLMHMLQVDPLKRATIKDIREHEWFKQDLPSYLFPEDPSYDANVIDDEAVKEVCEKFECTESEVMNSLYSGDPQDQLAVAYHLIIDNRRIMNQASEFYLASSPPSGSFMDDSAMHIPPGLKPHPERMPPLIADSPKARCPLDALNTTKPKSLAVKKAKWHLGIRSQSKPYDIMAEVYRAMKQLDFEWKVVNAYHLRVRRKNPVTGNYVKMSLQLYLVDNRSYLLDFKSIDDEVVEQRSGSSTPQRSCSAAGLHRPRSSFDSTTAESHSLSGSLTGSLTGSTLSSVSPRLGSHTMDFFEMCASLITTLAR
T1 sequence (O43741 whole entry, the tested form may be a part): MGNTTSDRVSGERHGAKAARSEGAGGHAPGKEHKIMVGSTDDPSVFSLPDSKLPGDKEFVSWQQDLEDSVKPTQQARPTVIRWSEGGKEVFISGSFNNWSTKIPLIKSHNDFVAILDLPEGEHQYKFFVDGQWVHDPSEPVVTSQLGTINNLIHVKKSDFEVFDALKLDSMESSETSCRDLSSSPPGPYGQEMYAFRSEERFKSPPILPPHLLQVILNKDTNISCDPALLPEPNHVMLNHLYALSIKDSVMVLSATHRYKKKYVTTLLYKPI
T1 sequence (Q9UGJ0 whole entry partner, the tested form may be a part): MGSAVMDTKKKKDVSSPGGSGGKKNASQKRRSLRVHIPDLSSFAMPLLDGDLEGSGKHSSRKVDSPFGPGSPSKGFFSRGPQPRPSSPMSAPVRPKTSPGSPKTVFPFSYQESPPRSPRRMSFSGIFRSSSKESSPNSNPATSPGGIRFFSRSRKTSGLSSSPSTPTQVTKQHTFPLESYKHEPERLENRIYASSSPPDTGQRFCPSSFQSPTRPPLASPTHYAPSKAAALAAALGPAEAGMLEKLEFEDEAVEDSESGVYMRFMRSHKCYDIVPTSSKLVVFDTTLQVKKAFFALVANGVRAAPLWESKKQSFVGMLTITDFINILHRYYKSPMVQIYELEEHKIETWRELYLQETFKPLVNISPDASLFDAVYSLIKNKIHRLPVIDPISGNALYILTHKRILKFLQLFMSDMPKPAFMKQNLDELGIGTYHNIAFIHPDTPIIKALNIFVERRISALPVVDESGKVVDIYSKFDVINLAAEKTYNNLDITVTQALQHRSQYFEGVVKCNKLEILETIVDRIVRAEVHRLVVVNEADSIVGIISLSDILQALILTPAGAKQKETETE
T6 sequence (P54646 whole entry, the tested form may be a part): as the sequence (P54646 whole entry, the tested form may be a part) above
T6 sequence (O43741 whole entry, the tested form may be a part): as the sequence (O43741 whole entry, the tested form may be a part) above
T6 sequence (Q9UGI9 whole entry partner, the tested form may be a part): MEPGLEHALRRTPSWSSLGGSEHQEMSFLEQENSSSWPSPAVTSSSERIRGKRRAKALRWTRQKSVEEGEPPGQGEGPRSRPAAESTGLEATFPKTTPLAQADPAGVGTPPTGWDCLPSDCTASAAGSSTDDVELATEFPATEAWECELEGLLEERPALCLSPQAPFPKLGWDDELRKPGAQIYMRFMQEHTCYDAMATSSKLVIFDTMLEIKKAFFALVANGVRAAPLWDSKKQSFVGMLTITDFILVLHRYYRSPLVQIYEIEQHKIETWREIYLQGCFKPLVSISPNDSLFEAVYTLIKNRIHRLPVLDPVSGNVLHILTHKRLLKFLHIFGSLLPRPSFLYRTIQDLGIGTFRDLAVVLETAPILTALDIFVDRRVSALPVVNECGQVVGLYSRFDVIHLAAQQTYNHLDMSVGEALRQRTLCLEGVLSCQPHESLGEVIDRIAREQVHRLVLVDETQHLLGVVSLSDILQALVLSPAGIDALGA
T3 sequence (P54646 whole entry, the tested form may be a part): as the sequence (P54646 whole entry, the tested form may be a part) above
T3 sequence (Q9Y478 whole entry, the tested form may be a part): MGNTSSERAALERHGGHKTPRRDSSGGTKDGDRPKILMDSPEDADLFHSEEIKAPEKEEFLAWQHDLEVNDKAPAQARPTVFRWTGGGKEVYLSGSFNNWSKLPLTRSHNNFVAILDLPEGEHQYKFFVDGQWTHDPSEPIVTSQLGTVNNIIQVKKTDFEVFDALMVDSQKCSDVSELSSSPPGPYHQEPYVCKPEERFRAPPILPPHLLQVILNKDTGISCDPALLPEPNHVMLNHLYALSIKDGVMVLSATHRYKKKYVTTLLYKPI
T3 sequence (Q9UGI9 whole entry partner, the tested form may be a part): as the sequence (Q9UGI9 whole entry partner, the tested form may be a part) above
T4 sequence (P54646 whole entry, the tested form may be a part): as the sequence (P54646 whole entry, the tested form may be a part) above
T4 sequence (Q9Y478 whole entry, the tested form may be a part): as the sequence (Q9Y478 whole entry, the tested form may be a part) above
T4 sequence (Q9UGJ0 whole entry partner, the tested form may be a part): as the sequence (Q9UGJ0 whole entry partner, the tested form may be a part) above
T2 sequence (Q13131 whole entry, the tested form may be a part): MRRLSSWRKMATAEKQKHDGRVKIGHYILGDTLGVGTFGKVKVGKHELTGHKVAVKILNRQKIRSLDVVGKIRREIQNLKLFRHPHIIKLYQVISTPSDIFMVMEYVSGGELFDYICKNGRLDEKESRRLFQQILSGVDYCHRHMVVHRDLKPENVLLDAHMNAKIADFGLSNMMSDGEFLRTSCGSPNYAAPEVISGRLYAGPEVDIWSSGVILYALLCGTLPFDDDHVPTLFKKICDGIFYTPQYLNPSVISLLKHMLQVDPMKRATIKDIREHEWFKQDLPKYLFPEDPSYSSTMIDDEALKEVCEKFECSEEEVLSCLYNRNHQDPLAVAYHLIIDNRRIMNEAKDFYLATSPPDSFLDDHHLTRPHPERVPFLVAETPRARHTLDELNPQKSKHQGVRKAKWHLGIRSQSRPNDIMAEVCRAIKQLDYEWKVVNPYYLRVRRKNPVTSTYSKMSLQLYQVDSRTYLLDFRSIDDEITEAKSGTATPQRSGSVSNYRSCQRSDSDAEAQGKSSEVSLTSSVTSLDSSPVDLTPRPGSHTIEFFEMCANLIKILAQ
T2 sequence (Q9Y478 whole entry, the tested form may be a part): as the sequence (Q9Y478 whole entry, the tested form may be a part) above
T2 sequence (Q9UGJ0 whole entry partner, the tested form may be a part): as the sequence (Q9UGJ0 whole entry partner, the tested form may be a part) above
T7 sequence (Q13131 whole entry, the tested form may be a part): as the sequence (Q13131 whole entry, the tested form may be a part) above
T7 sequence (O43741 whole entry, the tested form may be a part): as the sequence (O43741 whole entry, the tested form may be a part) above
T7 sequence (Q9UGJ0 whole entry partner, the tested form may be a part): as the sequence (Q9UGJ0 whole entry partner, the tested form may be a part) above
T8 sequence (Q13131 whole entry, the tested form may be a part): as the sequence (Q13131 whole entry, the tested form may be a part) above
T8 sequence (Q9Y478 whole entry, the tested form may be a part): as the sequence (Q9Y478 whole entry, the tested form may be a part) above
T8 sequence (Q9UGI9 whole entry partner, the tested form may be a part): as the sequence (Q9UGI9 whole entry partner, the tested form may be a part) above
T5 sequence (Q13131 whole entry, the tested form may be a part): as the sequence (Q13131 whole entry, the tested form may be a part) above
T5 sequence (O43741 whole entry, the tested form may be a part): as the sequence (O43741 whole entry, the tested form may be a part) above
T5 sequence (Q9UGI9 whole entry partner, the tested form may be a part): as the sequence (Q9UGI9 whole entry partner, the tested form may be a part) above

Consider `CC(=O)NC1CC=C(c2ccc(-c3nc4nc(Oc5ccc(C)c(C(=O)O)c5)[nH]c4cc3Cl)cc2)CC1` (centres unmarked) [MSG011, 5-((5-(4′-Acetamido-2′,3′,4′,5′-tetrahydro-[1,1′-biphenyl]-4-yl)-6-chloro-1H-imidazo[4,5-b]pyridin-2-yl)oxy)-2-methylbenzoic acid], for which the “fold AMPK activation relative to vehicle” value in assay [1], in assay [2], in assay [3], in assay [4], in assay [5] and in assay [6] was above 2.2 fold each time. Moreover, the “fold AMPK activation relative to vehicle” value in assay [7] is 1.6 fold; in assay [8], above 2.2 fold.
